This is an account of results in ChEMBL document CHEMBL1138461, “4-Phenyl-7-azaindoles as potent and selective IKK2 inhibitors” (Bioorg Med Chem Lett, 2009).

For experiment [1], the target named is T1, Inhibitor of nuclear factor kappa-B kinase subunit beta (Homo sapiens, UniProt O14920).
T1 sequence (O14920 whole entry): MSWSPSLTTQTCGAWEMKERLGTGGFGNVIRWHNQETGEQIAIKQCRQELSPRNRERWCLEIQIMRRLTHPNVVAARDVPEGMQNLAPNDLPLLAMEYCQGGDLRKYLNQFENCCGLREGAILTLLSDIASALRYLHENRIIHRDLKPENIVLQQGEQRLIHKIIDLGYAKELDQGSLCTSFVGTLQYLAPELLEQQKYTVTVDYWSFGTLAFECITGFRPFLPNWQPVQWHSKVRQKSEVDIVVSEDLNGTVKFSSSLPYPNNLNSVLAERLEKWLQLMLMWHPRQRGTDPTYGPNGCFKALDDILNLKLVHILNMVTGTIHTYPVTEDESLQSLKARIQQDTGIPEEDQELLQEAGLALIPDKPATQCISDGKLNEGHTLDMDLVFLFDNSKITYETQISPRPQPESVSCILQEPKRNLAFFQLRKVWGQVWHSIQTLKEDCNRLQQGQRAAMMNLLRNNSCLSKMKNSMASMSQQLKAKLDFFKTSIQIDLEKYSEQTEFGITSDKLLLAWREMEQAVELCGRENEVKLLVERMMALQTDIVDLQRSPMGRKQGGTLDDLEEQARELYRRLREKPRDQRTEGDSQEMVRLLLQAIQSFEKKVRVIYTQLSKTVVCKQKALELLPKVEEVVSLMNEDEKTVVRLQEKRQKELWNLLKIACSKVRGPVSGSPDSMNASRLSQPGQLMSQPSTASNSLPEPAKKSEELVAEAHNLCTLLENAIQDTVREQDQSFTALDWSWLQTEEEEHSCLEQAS
Put plainly: Inhibition of human recombinant IKK2.

In experiment [2] the target is T2, Inhibitor of nuclear factor kappa-B kinase subunit alpha (Homo sapiens, UniProt O15111).
T2 sequence (O15111 whole entry): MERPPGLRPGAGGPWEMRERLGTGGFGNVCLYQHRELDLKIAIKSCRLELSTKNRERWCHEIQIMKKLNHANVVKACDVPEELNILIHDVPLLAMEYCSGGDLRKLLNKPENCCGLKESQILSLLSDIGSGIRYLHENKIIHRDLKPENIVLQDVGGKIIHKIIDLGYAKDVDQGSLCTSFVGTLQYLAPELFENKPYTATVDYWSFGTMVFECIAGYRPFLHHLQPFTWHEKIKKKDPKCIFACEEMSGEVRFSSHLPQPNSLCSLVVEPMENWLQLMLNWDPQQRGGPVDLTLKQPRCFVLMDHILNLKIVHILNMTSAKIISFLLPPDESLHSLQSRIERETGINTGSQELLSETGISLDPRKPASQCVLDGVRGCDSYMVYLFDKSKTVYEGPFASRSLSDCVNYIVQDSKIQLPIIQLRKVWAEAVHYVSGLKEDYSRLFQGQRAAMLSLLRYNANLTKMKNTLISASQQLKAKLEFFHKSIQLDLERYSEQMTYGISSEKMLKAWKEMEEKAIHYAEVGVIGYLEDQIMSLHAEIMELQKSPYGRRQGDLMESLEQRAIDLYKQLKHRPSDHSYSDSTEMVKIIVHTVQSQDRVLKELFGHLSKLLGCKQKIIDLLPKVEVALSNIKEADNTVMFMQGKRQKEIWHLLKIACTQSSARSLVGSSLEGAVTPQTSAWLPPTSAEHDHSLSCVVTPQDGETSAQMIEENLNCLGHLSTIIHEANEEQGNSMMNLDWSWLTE
Put plainly: Inhibition of human recombinant IKK1.

The target in experiment [3] is Rho-associated protein kinase 1 (Homo sapiens, UniProt Q13464). Put plainly: Inhibition of human recombinant ROCK1.
Chain of Rho-associated protein kinase 1 (Q13464 whole entry): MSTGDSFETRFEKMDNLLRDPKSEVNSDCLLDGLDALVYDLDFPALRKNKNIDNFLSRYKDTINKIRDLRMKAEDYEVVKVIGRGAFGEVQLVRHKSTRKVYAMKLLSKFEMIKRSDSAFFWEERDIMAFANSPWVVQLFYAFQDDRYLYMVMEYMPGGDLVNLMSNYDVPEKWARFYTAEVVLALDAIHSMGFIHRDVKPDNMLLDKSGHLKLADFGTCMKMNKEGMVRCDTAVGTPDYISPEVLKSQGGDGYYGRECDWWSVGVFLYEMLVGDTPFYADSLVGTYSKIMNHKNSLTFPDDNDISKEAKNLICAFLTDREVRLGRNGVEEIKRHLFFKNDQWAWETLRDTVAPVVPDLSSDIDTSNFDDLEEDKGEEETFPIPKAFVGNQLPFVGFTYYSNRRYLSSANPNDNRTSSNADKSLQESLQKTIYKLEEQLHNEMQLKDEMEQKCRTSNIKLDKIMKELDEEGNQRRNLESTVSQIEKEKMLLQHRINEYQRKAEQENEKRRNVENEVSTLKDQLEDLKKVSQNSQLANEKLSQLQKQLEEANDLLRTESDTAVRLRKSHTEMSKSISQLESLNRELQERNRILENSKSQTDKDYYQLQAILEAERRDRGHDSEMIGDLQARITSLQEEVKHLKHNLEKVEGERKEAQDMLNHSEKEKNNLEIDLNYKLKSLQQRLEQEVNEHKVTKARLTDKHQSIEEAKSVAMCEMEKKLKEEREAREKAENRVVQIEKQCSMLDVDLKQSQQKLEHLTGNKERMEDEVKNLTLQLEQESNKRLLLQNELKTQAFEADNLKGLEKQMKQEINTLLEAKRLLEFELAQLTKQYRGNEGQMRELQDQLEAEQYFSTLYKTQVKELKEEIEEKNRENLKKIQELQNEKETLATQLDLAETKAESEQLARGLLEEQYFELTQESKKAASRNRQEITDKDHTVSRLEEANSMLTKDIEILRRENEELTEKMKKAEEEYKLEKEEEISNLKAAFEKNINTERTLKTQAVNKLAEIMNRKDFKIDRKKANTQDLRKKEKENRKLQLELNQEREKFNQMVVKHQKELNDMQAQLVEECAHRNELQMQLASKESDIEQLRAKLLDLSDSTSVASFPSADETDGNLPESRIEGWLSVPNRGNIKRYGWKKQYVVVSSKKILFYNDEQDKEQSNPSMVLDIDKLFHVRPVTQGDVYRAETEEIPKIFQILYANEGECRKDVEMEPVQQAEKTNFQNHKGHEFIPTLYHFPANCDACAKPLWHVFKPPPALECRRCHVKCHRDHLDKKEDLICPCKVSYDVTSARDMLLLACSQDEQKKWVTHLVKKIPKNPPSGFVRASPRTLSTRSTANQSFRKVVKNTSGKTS
The target of experiment [4] is Aurora kinase B (Homo sapiens, UniProt Q96GD4). As to the kind of experiment: Inhibition of Aurora B kinase.
Chain of Aurora kinase B (Q96GD4 whole entry): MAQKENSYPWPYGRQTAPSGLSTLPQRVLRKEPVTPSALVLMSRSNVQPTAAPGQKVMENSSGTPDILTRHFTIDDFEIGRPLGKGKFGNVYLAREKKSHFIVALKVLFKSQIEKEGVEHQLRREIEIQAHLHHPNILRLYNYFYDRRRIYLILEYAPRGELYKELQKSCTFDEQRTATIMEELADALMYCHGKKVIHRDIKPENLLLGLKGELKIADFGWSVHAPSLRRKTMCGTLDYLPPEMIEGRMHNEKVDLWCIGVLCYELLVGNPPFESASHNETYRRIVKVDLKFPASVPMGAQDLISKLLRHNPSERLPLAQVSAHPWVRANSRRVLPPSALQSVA
For experiment [5], the target named is Glycogen synthase kinase-3 beta (Homo sapiens, UniProt P49841). As to the kind of experiment: Inhibition of GSK3-beta kinase.
Chain of Glycogen synthase kinase-3 beta (P49841 whole entry): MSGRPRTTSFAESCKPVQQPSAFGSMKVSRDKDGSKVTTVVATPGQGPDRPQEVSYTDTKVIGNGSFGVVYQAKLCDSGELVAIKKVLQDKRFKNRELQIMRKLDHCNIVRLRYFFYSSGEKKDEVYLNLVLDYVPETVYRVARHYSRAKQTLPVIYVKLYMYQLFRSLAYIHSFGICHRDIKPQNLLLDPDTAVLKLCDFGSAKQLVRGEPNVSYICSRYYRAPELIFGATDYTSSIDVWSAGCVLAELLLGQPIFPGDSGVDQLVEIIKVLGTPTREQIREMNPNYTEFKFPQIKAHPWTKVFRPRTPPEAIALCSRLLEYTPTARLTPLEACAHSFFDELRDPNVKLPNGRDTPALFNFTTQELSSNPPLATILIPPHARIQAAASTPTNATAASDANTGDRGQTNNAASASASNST
For experiment [6], the system named is A549. Put plainly: Inhibition of TNF-alpha-induced NF-kappaB […] activation in human A549 cells. Type of experiment: functional, cell-based.

Molecules are shown by their SMILES.

Broadly, the IC50 is the concentration needed to halve the response being measured. With `CS(=O)(=O)Nc1ccc(-c2ccnc3[nH]ccc23)cc1`, the values for the half-maximal inhibitory concentration (IC50) in experiment [1] and in experiment [2] were 0.158 µM and 0.794 µM, respectively.

`Cc1cc2c(-c3ccc(S(=O)(=O)N(C)CCO)cc3)ccnc2[nH]1`: the IC50 in experiment [3] was above 10 µM; in experiment [1] it was 0.0398 µM; in experiment [4], 1.58 µM; in experiment [5] it was above 25.1 µM; in experiment [2], 3.16 µM.

For `CNCCNS(=O)(=O)c1ccc(-c2ccnc3[nH]ccc23)cc1`, the IC50 in experiment [1] is 0.0316 µM; in experiment [2], 0.316 µM.

In the case of `Cc1cc2c(-c3ccc(S(=O)(=O)NCCO)cc3)ccnc2[nH]1`, the IC50 in experiment [1] is 0.02 µM; in experiment [2] it was 0.316 µM; in experiment [6], 0.501 µM.

For `O=S1(=O)CCC(NS(=O)(=O)c2ccc(-c3ccnc4[nH]ccc34)cc2)CC1`, the 50% inhibitory concentration (IC50) in experiment [1] is 0.0794 µM; in experiment [2], 0.0501 µM.

For `Cc1cc2c(-c3ccc(NS(C)(=O)=O)cc3)ccnc2[nH]1`, the figures for the IC50 in experiment [1], in experiment [2] and in experiment [6] were 0.0631 µM, 3.98 µM and 1 µM, respectively.

As for `CN(C)CCNS(=O)(=O)c1ccc(-c2ccnc3[nH]ccc23)cc1`, the IC50 was 0.2 µM in experiment [1] and 0.794 µM in experiment [2].

In the case of `Cc1cc2c(-c3ccc(S(=O)(=O)N(C)C4CCS(=O)(=O)CC4)cc3)ccnc2[nH]1`, the results for the IC50 in experiment [1], in experiment [2] and in experiment [6] were 0.0398 µM, 1 µM and 0.501 µM, respectively.

Regarding `Cc1cc2c(-c3ccc(N(C)S(C)(=O)=O)cc3)ccnc2[nH]1`, the figures for the IC50 in experiment [1], in experiment [2] and in experiment [6] were 0.316 µM, 7.94 µM and 2 µM, respectively.

For `O=S(=O)(NC1CNC1)c1ccc(-c2ccnc3[nH]ccc23)cc1`, the IC50 in experiment [1] was 0.0398 µM; in experiment [2] it was 0.0316 µM.

On to `NC(=O)c1ccc(-c2ccnc3[nH]ccc23)cc1`, for which the IC50 was 0.631 µM in experiment [1] and 0.398 µM in experiment [2].

In the case of `O=S(=O)(c1ccc(-c2ccnc3[nH]ccc23)cc1)N1CCCC1`, the IC50 in experiment [1] was 0.251 µM; in experiment [2] it was 1.26 µM.

For `Cc1cc2c(-c3ccc(S(=O)(=O)NC4CCS(=O)(=O)CC4)cc3)ccnc2[nH]1`, the figures for the 50% inhibitory concentration (IC50) in experiment [1], in experiment [2] and in experiment [6] were 0.02 µM, 0.0126 µM and 0.0501 µM, respectively.

Consider `c1ccc(-c2ccnc3[nH]ccc23)cc1`, for which the IC50 in experiment [1] is 3.16 µM; in experiment [2], 3.98 µM.

As for `NCCNS(=O)(=O)c1ccc(-c2ccnc3[nH]ccc23)cc1`, the IC50 is 0.02 µM in experiment [3], 0.0398 µM in experiment [1], 0.251 µM in experiment [2] and 0.631 µM in experiment [6].

For the compound `NS(=O)(=O)c1cccc(-c2ccnc3[nH]ccc23)c1`, the IC50 in experiment [1] was 5.01 µM; in experiment [2] it was 1.26 µM.

On to `Cc1cc2c(-c3ccc(S(=O)(=O)NCCN)cc3)ccnc2[nH]1`, for which the IC50 was 0.316 µM in experiment [3], 0.02 µM in experiment [1], 0.126 µM in experiment [2] and 0.316 µM in experiment [6].

As to `NCCNS(=O)(=O)c1ccc(-c2ccnc3[nH]c(CC(N)=O)cc23)cc1`, the IC50 was 10 µM in experiment [3], 0.02 µM in experiment [1], 0.158 µM in experiment [2] and 3.98 µM in experiment [6].

On to `NS(=O)(=O)c1ccc(-c2ccnc3[nH]ccc23)cc1`, for which the 50% inhibitory concentration (IC50) in experiment [1] was 0.316 µM; in experiment [2], 0.158 µM.

Turning to `Cc1cc2c(-c3ccc(NS(=O)(=O)CCN)cc3)ccnc2[nH]1`, the IC50 in experiment [1] is 0.0158 µM; in experiment [2], 0.126 µM; in experiment [6] it was 2 µM.
